For one series, the system named is PBMC. The series is described as follows: Antiinflammatory activity in human PBMC assessed as inhibition of LPS-induced TNFalpha production. Format: functional, cell-based.
The target of series [1] is Mitogen-activated protein kinase 14 (Homo sapiens, UniProt Q16539). The series is described as follows: Inhibition of human recombinant p38alpha.
The target of series [2] is Tyrosine-protein kinase BTK (Homo sapiens, UniProt Q06187). The series is described as follows: Inhibition of Btk.
Series [3] can be described thus: Inhibition of GSK3.
A short description of series [4]: Metabolic rate in human liver microsomes at 3 uM after 10 mins.
A further series deals with Cytochrome P450 2C19 (Homo sapiens, UniProt P33261). The series is described as follows: Inhibition of CYP2C19. Format: ADME.
A short description of series [5]: Metabolic rate in rat liver microsomes at 3 uM after 10 mins. A general note: Liver microsomes are vesicles of endoplasmic reticulum, rich in cytochrome P450 enzymes.
For the next series, the target named is Cytochrome P450 3A4 (Homo sapiens, UniProt P08684). The series is described as follows: Inhibition of CYP3A4. Format: ADME.
Chain of Cytochrome P450 3A4 (P08684 whole entry): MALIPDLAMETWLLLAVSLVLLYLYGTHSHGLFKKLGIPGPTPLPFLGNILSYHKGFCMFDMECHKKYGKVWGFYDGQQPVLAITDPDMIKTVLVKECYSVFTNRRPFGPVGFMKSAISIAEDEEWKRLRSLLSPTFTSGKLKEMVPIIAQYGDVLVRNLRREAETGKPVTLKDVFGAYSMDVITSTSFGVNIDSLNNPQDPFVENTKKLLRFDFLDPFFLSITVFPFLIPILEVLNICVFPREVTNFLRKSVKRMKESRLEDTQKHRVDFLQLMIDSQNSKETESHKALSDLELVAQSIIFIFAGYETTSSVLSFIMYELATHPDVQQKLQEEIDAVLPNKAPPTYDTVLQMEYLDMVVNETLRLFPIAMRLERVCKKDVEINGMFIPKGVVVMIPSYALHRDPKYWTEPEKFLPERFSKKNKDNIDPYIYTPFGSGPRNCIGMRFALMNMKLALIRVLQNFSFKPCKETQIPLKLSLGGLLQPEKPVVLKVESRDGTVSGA
The next series concerns the target Cytochrome P450 2C9 (Homo sapiens, UniProt P11712). The series is described as follows: Inhibition of CYP2C9. Format: ADME.
Series [6] is described as follows: Inhibition of Lckzeta.
The target in series [7] is Protein kinase C zeta type (Homo sapiens, UniProt Q05513). Put plainly: Inhibition of PKCzeta.
The target of series [8] is Insulin-like growth factor 1 receptor (Homo sapiens, UniProt P08069). The series is described as follows: Inhibition of IGF-1R.
The nature of series [9]: Inhibition of CaMK2.
The nature of series [10]: Inhibition of VEGF receptor.
Series [11] addresses Diacylglycerol O-acyltransferase 1 (Homo sapiens, UniProt O75907). The series is described as follows: Inhibition of DGAT.
The target of series [12] is Protein kinase C alpha type (Homo sapiens, UniProt P17252). Put plainly: Inhibition of PKCalpha.
In the next series the target is Cytochrome P450 1A2 (Homo sapiens, UniProt P05177). Put plainly: Inhibition of CYP1A2. Format: ADME.
Series [13] can be described thus: Metabolic rate in mouse liver microsomes at 3 uM after 10 mins.
For the next series, the target named is Cytochrome P450 2D6 (Homo sapiens, UniProt P10635). Put plainly: Inhibition of CYP2D6. It counts as ADME.
Series [14] addresses Serine/threonine-protein kinase PLK1 (Homo sapiens, UniProt P53350). Put plainly: Inhibition of PLK1.
The subject of another series is Mus musculus. The series is described as follows: Antiinflammatory activity in mouse plasma assessed as inhibition of LPS-induced TNFalpha production at 5 mg/kg, po administered 24 hrs before LPS challenge measured after 90 mins. Format: functional.
Series [15] in a line: Aqueous solubility of the compound at pH 6.5. Format: physicochemical.
Series [16] can be described thus: Inhibition of PKCtau.
The target in series [17] is MAP kinase-activated protein kinase 2 (Homo sapiens, UniProt P49137). Put plainly: Inhibition of MK2.
Chain of MAP kinase-activated protein kinase 2 (P49137 whole entry): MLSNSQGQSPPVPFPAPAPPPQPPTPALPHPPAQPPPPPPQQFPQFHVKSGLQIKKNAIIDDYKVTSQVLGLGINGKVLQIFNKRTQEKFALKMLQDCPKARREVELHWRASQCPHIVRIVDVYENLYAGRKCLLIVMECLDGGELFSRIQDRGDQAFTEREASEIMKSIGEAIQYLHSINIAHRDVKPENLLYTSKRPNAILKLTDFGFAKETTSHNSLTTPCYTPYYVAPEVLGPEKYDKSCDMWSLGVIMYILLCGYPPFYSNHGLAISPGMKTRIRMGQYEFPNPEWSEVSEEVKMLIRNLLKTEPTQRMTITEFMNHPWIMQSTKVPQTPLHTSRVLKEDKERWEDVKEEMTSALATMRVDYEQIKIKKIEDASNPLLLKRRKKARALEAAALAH
The target of series [18] is Fibroblast growth factor receptor 1 (Homo sapiens, UniProt P11362). Put plainly: Inhibition of FGFR1.
Chain of Fibroblast growth factor receptor 1 (P11362 whole entry): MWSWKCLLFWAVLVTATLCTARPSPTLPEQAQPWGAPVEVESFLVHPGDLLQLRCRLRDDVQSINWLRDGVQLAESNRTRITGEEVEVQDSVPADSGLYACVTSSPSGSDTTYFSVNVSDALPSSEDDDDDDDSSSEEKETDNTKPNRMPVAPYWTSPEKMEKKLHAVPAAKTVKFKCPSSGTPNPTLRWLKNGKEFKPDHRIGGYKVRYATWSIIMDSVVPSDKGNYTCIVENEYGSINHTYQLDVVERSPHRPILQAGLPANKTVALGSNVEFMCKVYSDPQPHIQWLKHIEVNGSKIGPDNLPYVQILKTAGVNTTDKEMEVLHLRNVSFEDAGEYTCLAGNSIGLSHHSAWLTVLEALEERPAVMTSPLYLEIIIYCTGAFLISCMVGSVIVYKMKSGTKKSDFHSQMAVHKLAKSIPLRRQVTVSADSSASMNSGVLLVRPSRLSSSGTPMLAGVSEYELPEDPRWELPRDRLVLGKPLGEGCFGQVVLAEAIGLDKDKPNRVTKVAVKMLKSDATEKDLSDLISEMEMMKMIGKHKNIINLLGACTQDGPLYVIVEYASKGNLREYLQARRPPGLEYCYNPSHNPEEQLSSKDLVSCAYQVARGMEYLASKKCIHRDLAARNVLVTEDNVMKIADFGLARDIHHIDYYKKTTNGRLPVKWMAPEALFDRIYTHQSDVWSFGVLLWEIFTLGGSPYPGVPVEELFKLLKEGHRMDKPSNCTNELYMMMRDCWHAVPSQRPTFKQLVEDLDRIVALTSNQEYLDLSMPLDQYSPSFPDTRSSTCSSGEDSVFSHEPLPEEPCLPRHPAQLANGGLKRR
In series [19] the target is Vascular endothelial growth factor receptor 2 (Homo sapiens, UniProt P35968). The series is described as follows: Inhibition of KDR.
The nature of series [20]: Inhibition of PDGF receptor.
In series [21] the target is Voltage-gated inwardly rectifying potassium channel KCNH2 (Homo sapiens, UniProt Q12809). Put plainly: Inhibition of human ERG by flux assay.
Series [22] concerns the target Protein kinase C delta type (Homo sapiens, UniProt Q05655). The series is described as follows: Inhibition of PKCdelta.
In series [23] the target is Non-receptor tyrosine-protein kinase TYK2 (Homo sapiens, UniProt P29597). Put plainly: Inhibition of Tyk2.
Chain of Non-receptor tyrosine-protein kinase TYK2 (P29597 whole entry): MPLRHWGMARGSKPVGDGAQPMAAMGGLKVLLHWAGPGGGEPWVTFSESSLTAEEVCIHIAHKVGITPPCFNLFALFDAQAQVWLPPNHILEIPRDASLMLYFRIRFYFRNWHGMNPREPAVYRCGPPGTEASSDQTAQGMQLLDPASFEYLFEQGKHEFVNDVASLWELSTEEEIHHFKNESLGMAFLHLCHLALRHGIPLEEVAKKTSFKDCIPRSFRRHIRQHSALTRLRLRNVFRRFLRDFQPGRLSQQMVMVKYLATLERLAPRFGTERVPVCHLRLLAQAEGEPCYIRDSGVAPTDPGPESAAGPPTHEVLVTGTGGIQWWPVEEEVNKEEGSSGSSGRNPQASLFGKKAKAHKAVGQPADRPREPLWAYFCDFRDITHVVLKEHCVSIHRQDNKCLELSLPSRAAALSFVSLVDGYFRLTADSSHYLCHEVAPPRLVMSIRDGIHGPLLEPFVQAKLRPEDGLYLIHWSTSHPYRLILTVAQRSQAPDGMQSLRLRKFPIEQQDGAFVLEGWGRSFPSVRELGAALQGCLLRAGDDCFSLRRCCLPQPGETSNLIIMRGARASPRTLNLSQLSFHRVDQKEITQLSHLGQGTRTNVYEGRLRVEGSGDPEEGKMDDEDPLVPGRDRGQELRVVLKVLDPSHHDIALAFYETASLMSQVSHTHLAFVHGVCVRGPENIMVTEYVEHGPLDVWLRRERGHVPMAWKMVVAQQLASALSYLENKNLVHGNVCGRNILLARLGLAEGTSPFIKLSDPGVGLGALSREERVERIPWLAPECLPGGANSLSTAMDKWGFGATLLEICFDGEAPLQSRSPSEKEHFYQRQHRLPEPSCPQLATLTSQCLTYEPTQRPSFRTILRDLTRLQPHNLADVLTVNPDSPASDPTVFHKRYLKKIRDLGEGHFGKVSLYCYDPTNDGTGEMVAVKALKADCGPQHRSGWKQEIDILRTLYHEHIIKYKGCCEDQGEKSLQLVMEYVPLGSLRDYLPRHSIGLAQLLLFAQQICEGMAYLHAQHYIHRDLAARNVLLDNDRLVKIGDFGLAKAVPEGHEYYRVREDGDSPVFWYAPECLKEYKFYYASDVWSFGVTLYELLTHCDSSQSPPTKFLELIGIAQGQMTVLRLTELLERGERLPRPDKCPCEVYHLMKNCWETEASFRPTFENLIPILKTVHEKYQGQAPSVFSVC
Series [24] can be described thus: Apparent permeability across human Caco-2 cells. It counts as ADME, cell-based. To be noted: read-out: permeability. (In general: Caco-2 monolayers are a common model of the intestinal barrier.)
Series [25] addresses Tyrosine-protein kinase JAK3 (Homo sapiens, UniProt P52333). The series is described as follows: Inhibition of Jak3.
The target in series [26] is Tyrosine-protein kinase ITK/TSK (Homo sapiens, UniProt Q08881). Put plainly: Inhibition of Itk.
The target of series [27] is Signal transducer and activator of transcription 3 (Homo sapiens, UniProt P40763). The series is described as follows: Inhibition of STAT3.

We go through 18 compounds from ChEMBL document CHEMBL1287714, “5-amino-pyrazoles as potent and selective p38α inhibitors” (Bioorg Med Chem Lett, 2010).

Broadly, the IC50 is the concentration at which inhibition is half-maximal. For orientation: inhibition in vivo means how much of the control response was suppressed. In general, solubility refers to the concentration that dissolves in the medium under given conditions. Lower therefore signals little dissolved substance.

Each structure is given as a SMILES string. In brackets after ≈: the same amount, converted by molar mass.

Chain of Mitogen-activated protein kinase 14 (Q16539 whole entry): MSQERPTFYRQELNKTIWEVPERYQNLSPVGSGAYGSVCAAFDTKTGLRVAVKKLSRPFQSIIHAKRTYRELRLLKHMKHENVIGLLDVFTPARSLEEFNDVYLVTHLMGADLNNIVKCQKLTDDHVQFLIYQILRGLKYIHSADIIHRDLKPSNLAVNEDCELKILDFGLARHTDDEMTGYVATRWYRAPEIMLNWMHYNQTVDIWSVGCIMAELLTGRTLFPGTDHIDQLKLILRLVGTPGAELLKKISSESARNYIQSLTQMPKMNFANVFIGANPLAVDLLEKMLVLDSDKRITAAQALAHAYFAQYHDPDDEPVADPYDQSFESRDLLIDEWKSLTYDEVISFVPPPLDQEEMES
Chain of Tyrosine-protein kinase JAK3 (P52333 whole entry): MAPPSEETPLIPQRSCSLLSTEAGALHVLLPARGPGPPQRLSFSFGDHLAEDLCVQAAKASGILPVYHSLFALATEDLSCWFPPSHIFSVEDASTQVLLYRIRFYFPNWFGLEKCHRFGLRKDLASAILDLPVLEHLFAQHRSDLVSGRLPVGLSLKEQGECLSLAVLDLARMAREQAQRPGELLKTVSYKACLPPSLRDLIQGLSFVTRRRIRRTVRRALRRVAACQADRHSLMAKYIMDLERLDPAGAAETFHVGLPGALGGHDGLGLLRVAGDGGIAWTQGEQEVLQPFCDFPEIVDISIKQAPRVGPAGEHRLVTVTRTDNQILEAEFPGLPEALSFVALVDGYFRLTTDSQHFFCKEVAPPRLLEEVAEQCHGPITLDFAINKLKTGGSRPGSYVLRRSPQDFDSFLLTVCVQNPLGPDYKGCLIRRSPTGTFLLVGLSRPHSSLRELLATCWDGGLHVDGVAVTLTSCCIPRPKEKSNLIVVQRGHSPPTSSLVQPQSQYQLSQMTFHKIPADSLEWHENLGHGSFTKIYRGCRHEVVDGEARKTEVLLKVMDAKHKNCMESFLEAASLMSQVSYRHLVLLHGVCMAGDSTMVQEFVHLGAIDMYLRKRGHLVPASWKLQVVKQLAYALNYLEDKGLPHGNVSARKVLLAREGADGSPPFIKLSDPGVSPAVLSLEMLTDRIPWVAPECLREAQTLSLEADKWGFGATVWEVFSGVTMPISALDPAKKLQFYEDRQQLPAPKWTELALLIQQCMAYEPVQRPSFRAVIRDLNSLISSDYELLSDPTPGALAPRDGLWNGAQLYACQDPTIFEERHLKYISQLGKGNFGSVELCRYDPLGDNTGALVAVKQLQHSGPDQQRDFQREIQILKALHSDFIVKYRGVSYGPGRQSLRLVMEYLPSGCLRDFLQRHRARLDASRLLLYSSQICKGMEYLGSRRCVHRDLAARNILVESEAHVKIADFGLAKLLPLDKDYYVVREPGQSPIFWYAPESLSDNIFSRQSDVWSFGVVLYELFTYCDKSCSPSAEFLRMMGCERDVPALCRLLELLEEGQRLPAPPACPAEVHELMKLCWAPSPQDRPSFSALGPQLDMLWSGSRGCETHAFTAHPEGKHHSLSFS
Chain of Cytochrome P450 2C9 (P11712 whole entry): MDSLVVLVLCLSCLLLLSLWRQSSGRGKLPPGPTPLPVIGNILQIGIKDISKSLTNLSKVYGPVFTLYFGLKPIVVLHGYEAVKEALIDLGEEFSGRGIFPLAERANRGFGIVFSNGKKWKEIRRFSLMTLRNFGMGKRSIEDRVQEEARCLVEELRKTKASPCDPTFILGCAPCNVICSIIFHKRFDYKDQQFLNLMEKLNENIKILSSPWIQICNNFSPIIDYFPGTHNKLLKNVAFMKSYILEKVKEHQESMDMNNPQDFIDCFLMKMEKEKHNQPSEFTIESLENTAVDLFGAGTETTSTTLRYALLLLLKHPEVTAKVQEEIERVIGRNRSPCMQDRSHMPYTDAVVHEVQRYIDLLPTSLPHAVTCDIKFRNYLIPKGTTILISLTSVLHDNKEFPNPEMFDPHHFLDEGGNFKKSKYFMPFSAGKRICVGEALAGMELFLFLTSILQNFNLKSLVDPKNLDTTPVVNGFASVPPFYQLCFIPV

For the compound `CCNc1c(C(=O)Nc2cc(C(=O)Nc3ccon3)ccc2C)cnn1-c1ccccn1`, the results for the IC50 (with PBMC; in [1]) were 30 nM and 4 nM, respectively.

As for `CNc1c(C(=O)Nc2cc(C(=O)Nc3ccon3)ccc2C)cnn1-c1ccccc1`, the concentration for half-maximal inhibition (IC50) with PBMC is 7 nM; in series [1], 5 nM.

For `CCn1nccc1NC(=O)c1ccc(C)c(NC(=O)c2cnn(-c3ccc(F)cc3)c2N)c1`, the half-maximal inhibitory concentration (IC50) (in the series with PBMC; in [1]) was 2 nM in each case.

For `CCCCn1ncc(C(=O)Nc2cc(C(=O)Nc3ccon3)ccc2C)c1N`, the half-maximal inhibitory concentration (IC50) (in the series on PBMC; in [1]) was 2 nM in each case.

As to `CNC(=O)c1ccc(C)c(NC(=O)c2cnn(-c3ccccc3)c2N)c1`, the IC50 was 48 nM with PBMC and 14 nM in [1].

Take `Cc1ccc(C(=O)Nc2ccon2)cc1NC(=O)c1cnn(-c2ccccc2F)c1N`: the IC50 in [2] is more than 15 µM; in series [3], more than 5 µM; against Cytochrome P450 2C19 it was more than 13 µM; against Cytochrome P450 3A4, more than 40 µM; against Cytochrome P450 2C9 it was 23 µM; with PBMC, 1 nM. Further, the concentration for half-maximal inhibition (IC50) is more than 50 µM in series [6]; more than 20 µM in series [7]; more than 50 µM in series [8]; more than 50 µM in series [9]; 2 nM in [1]; more than 50 µM in series [10]. The IC50 in [11] is more than 20 µM; in series [12], more than 40 µM; on Cytochrome P450 1A2, more than 40 µM; at Cytochrome P450 2D6, more than 40 µM; in [14] it was more than 15 µM; in series [16] it was more than 13 µM. The concentration for half-maximal inhibition (IC50) in series [17] is more than 30 µM; in series [18] it was more than 50 µM; in [19], more than 50 µM; in series [20] it was 9.2 µM; in series [21], more than 160 µM; in [22], more than 40 µM. Moreover, the IC50 is more than 5 µM in [23], more than 10 µM in series [25], more than 50 µM in series [26] and more than 10 µM in series [27]. Moreover, the metabolic rate at 10 min, 3 µM in series [4] is 0.001 nmol/min/mg; in series [5] it was 0 nmol/min/mg; in [13], 0 nmol/min/mg. The inhibition in vivo at 5 mg/kg with Mus musculus was more than 75%. Moreover, the solubility in series [15] worked out at 33 µg/mL (≈ 78.5 µM). The Papp in series [24] was determined as 23.1 ×10⁻⁶ cm/s.

In the case of `Cc1ccc(C(=O)Nc2ccnn2C)cc1NC(=O)c1cnn(-c2ccccc2F)c1N`, the IC50 in the series on PBMC was found to be 2 nM; in series [1] it was 4 nM.

With `Cc1ccc(C(=O)Nc2ccon2)cc1NC(=O)c1cnn(-c2ccc(F)cc2)c1N`, the IC50 (in the series with PBMC; in [1]) was 2 nM throughout.

Turning to `Cc1ccc(C(=O)NC2CC2)cc1NC(=O)c1cnn(-c2ccccc2)c1N`, the IC50 in the series on PBMC is 26 nM; in [1], 7 nM.

Regarding `CCNC(=O)c1ccc(C)c(NC(=O)c2cnn(-c3ccccc3)c2NCC)c1`, the IC50 is 15 nM with PBMC and 6 nM in series [1].

For `CCn1nccc1NC(=O)c1ccc(C)c(NC(=O)c2cnn(-c3ccccc3F)c2N)c1`, the concentration for half-maximal inhibition (IC50) is 5 nM in the series on PBMC and 3 nM in series [1].

`CCCCn1ncc(C(=O)Nc2cc(C(=O)Nc3ccnn3C)ccc2C)c1N`: the 50% inhibitory concentration (IC50) turned out to be 17 nM in the series on PBMC and 7 nM in [1].

With `Cc1ccc(C(=O)Nc2ccon2)cc1NC(=O)c1cnn(-c2ccccn2)c1N`, the values for the IC50 (with PBMC; in series [1]) were 8 nM and 2 nM, respectively.

For the compound `CCNC(=O)c1ccc(C)c(NC(=O)c2cnn(-c3ccccc3)c2N)c1`, the half-inhibitory concentration (IC50) amounted to 16 nM in the series with PBMC and 8 nM in series [1].

Turning to `CCn1nccc1NC(=O)c1ccc(C)c(NC(=O)c2cnn(-c3ccccc3)c2N)c1`, the results for the IC50 (in the series with PBMC; in series [1]) were 8 nM and 5 nM, respectively.

`CCNc1c(C(=O)Nc2cc(C(=O)Nc3ccon3)ccc2C)cnn1-c1ccccc1C`: the results for the half-maximal inhibitory concentration (IC50) (with PBMC; in [1]) were 1 nM and 5 nM, respectively.

Regarding `Cc1ccc(C(=O)Nc2ccnn2C)cc1NC(=O)c1cnn(-c2ccccc2)c1N`, the figures for the 50% inhibitory concentration (IC50) (with PBMC; in series [1]) were 5 nM and 7 nM, respectively.

For the compound `Cc1ccc(C(=O)Nc2ccon2)cc1NC(=O)c1cnn(-c2ccccc2)c1N`, in the series with PBMC, the IC50 was 1 nM.
